Tests used:
male Sprague-Dawley rats = test: Catalepsy (vertical grid) in rats; type: in vivo, rat; details: Compound 13 5-100 mg/kg P.O., haloperidol 0.1, 0.3, or 1 mg/kg S.C., 45 minutes post-dose
Protocol: Catalepsy is used as a model for detecting extrapyramidal side effects of antipsychotic drugs. […] The rats were removed from home cages 45 minutes later and placed on a vertical stainless steel grid, and the latency to move both forepaws from their starting position was measured for a maximum of 30 seconds. The test was repeated three times consecutively.
Catalepsy is expressed as the average latency to move both forepaws over the three trials. Latency increased in the rats administered haloperidol (see FIG. 27B), but was unchanged in rats administered Compound 13 (see FIG. 27A).

male Sprague Dawley rats = test: Plasma prolactin levels in rats (ELISA); type: in vivo, rat; details: basal prolactin release, haloperidol 0.1 and 1 mg/kg P.O., Compound 13 1, 10, and 100 mg/kg P.O., FIG. 28A
Protocol: Another unwanted side effect of certain antipsychotics is hyperprolactinemia. To examine prolactin levels following the administration of a GPR52 agonist, male Sprague Dawley rats (Harlan Laboratories, San Diego, Calif.) were single-housed, handled, and moved to a private housing room one week prior to testing. Rats were individually handled and sham dosed P.O. for four days prior to testing. For an assessment of haloperidol (0.1 and 1 mg/kg P.O.) and Compound 13 (1, 10, and 100 mg/kg P.O.) on basal prolactin release, rats were dosed with acidic 20% HP-β-cyclodextrin (HBCD) or compound at 3 mL/kg P.O. in their housing room 60 minutes prior to harvest. For interaction studies, rats were dosed with 20% HBCD or Compound 13 (10 mg/kg P.O.) 90 minutes prior to harvest, and additionally with 20% HBCD vehicle or haloperidol (0.3 and 1 mg/kg P.O.) 60 minutes prior to harvest. Rats were individually taken to the harvest room, and trunk blood was collected into 4 mL EDTA tubes following live decapitation. Samples were stored on wet ice until collection was complete, then spun in a cooling centrifuge at 2400 rpm for 20 minutes. Plasma was collected and frozen for subsequent analysis using a Rat Prolactin ELISA kit (ALPCO Diagnostics: Cat#55-PRLRT-E01).
Briefly, frozen plasma was thawed on ice and mixed prior to initiation of the ELISA. Twenty-five microliters of sample plasma along with serially diluted standards (lyophilized purified rat prolactin diluted with rat prolactin calibrator/sample diluent), and calibrator/sample diluent used as a blank were placed in a 96-well plate provided with the ELISA kit. Samples, blank, and standards were measured in duplicate. […] Fifty microliters of stop solution (2M hydrochloric acid) was added to the wells prior to reading on a 96-well plate reader (SpectraMax® 340PC; Molecular Devices, Sunnyvale, Calif.) at […]. The quantity of prolactin in each sample was calculated using a standard curve.

prolactin levels (male Sprague Dawley rats): increased
Compound: O=C(CCCN1CCC(O)(c2ccc(Cl)cc2)CC1)c1ccc(F)cc1 [haloperidol, reference compound]
catalepsy: average latency to move both forepaws (male Sprague-Dawley rats): increased

Source: patent publication US9676758B2, “1-heteroaryl-indoline-4-carboxamides as modulators of GPR52 useful for the treatment or prevention of disorders related thereto” (Arena Pharmaceuticals, Inc., priority 2015, dated 2017)
